# Key:
# Type in all cases: in vivo
# [1] = test system: AMPK-eNOS pathway; test: Mechanism of improving endothelial function (Western Blotting, total nitric oxide synthase activity in serum); conditions: ApoE−/− mice
# Description: (§1) After 1 week of adaptive feeding, the animals were randomly divided into 7 groups according to body weight: normal control group, model control group A769662 (30 mg/kg) administration group, metformin (260 mg/kg) administration group, IMM-H007 low, medium, and high administration groups (50, 100, 200 mg/kg), 8 in each group, and were given a high-fat diet (78.6% basal diet, 10% lard, 1.0% cholesterol, 10% egg yolk powder, and 0.4% bile salt), and simultaneously administered intragastrically at a dose of 0.1 ml/10 g body weight, and were continuously administered and fed for 8 weeks to establish an atherosclerosis model.
# The expression levels of AMPK, pAMPK, peNOS, eNOS, Caveolin-1 proteins were analyzed and measured by Western Blotting to determine the total nitric oxide synthase activity in serum.
# [2] = test system: mesenteric arterioles; test: Microvascular endothelial function in Ob/Ob obese mice (mesenteric arterioles, Ach / SNP relaxation)
# Description: PSS and KPSS solutions were configured according to the instructions and used at the same time of the day. The PSS solution was taken out before the start of the experiment and pre-oxygenated for about 20 min. The ApoE−/− mice, which were fed with high-fat and simultaneously administered for 10 weeks, were anesthetized with pentobarbital sodium. The mice were supine and fixed. The abdominal cavity was opened along the median line. The mesenteric vascular bed was isolated and placed in the pre-oxygenated 20-minute PSS buffer. Under a stereomicroscope, a third-order mesenteric artery with a length of about 3 mm was carefully isolated. Firstly, the blood vessel was fixed to a P1 glass cannula and the coil was tightened. Note: the proximal end should be connected to the P1 end, and the P2 end vessel should be fixed and the coil should be tightened. The Chamber was placed on a objective table of the microscope and the data connection between Chamber and Interface was checked. The bath cover was covered and the oxygen was introduced, to exhaust air in the pipeline. The blood vessel image was found under the microscope and then the microscope was turned to camera mode. (The knob on the side of the eyepiece was rotated to graph.) MyoVIEW software was opened. The Camera window Capture was clicked to display the blood vessel image. The equilibration of blood vessels slowly rose from 10 mmHg to 60 mmHg, and each step was 300 s. After the equilibration procedure was completed, the solution in the bath was drained. Blood vessels were stimulated (10 ml) for 2 min using a 37° C. pre-heated KPSS solution, and changes in vasoconstriction were observed, and the blood vessels were then eluted using the PSS solution to baseline. The blood vessels were equilibrated at 60 mmHg 37° C. for 45 minutes, during which time the fluid was replaced every 20 minutes. The experiment was started: observing the vasodilatory response induced by 10^−10 to 10^−5 M Ach after pre-contraction with 2 μM phenylephrine, to evaluate the effect of the drugs on the vascular endothelial function. At the end of the experiment, the fresh 37° C. pre-heated PSS buffer was replaced for equilibration for 30 min, and the 10^−10M to 10^−3 M sodium nitroprusside were given to induce vasodilatory response after pre-contraction with 2 μM phenylephrine, to evaluate the effect of the drugs on vascular smooth muscle function. LD1 was the diameter of blood vessel after relaxation by administration of different concentrations of ACh or sodium nitroprusside, LD2 was the diameter of blood vessels after pre-contraction with phenylephrine, and LD3 represented the maximum diastolic diameter of blood vessel without any stimulant.
# The relaxation response to Ach and sodium nitroprusside after pre-contraction with phenylephrine was expressed as the percentage increase in the vascular diameter: % Relaxation=(LD1−LD2)/(LD3−LD2)×100.
# […] The changes of food intake and body weight were recorded, and routine biochemical indicators such as blood lipids and blood glucose, etc. were measured. After 9 weeks, 3 animals were taken from each group and the mesenteric arterioles were taken for measurement of vascular endothelial function in the same manner as in Example 2.
# [3] = test system: ApoE−/− mice; test: Blood lipid levels in high-fat-fed ApoE−/− mice; conditions: 200 mg/kg, 8 weeks, high-fat diet
# Description: as §1
# (1) Effect of IMM-H007 on Blood Lipid Levels in ApoE−/− Mice: Total Cholesterol (TC), Triglyceride (TG), Low-Density Lipoprotein Cholesterol (LDL), High-Density Lipoprotein Cholesterol (HDL), and Free Fatty Acid (FFA)
# Operated according to kit instructions
# [4] = test system: ApoE−/− mice; test: Plaque area in ApoE−/− mice (oil red O staining of aorta and aortic root); conditions: for plaque area, Overall length of aorta: in % (unit assumed)
# Description: as §1, with “and were continuously administered and fed for 8 weeks to establish an atherosclerosis” left out
# The aortic root was stained with oil red O and the overall length of the aorta was stained with oil red O. The pathological images were analyzed by Photoshop, Image 1, and Image-Pro Plus softwares. The pathological grading data were statistically analyzed using Chi-square test.
smiles,measurement,setting,value
"CC(=O)OCC1OC(n2cnc3c(Nc4cccc(O)c4)ncnc32)C(OC(C)=O)C1OC(C)=O (stereo not shown) [IMM-H007, 2′,3,′ 5′-triacetyl-N^6(3-hydroxyphenyl)adenosine]",NO production,[1],increases
same,AMPK-eNOS pathway,[1]; Western Blotting,activation
same,activity of nitric oxide synthase,[1]; serum,improves
same,microvascular endothelial function,"[2]; 400 mg/kg, 9 weeks",improve
same,acetylcholine endothelium-dependent relaxation of microvascular,"[2]; 400 mg/kg, 1 × 10^−5 M Ach",93.6 ± 1.1 %
same,acetylcholine endothelium-dependent relaxation of microvascular,"[2]; 400 mg/kg, 1 × 10^−6 M Ach",82.1 ± 9.3 %
same,acetylcholine endothelium-dependent relaxation of microvascular,"[2]; 400 mg/kg, 1 × 10^−7 M Ach",71.7 ± 13.5 %
same,acetylcholine endothelium-dependent relaxation of microvascular,"[2]; 400 mg/kg, 1 × 10^−8 M Ach",57.6 ± 15.8 %
same,acetylcholine endothelium-dependent relaxation of microvascular,"[2]; 400 mg/kg, 1 × 10^−9 M Ach",32.3 ± 18.9%
same,acetylcholine endothelium-dependent relaxation of microvascular,"[2]; 400 mg/kg, 1 × 10^−10 M Ach",0.96 ± 0.85%
same,sodium nitroprusside endothelium-independent relaxation of microvascular,[2]; 1 × 10^−3 M SNP,95.0 ± 3.8%
same,sodium nitroprusside endothelium-independent relaxation of microvascular,[2]; 1 × 10^−4 M SNP,94.3 ± 2.3%
same,sodium nitroprusside endothelium-independent relaxation of microvascular,[2]; 1 × 10^−5 M SNP,91.4 ± 2.5%
same,sodium nitroprusside endothelium-independent relaxation of microvascular,[2]; 1 × 10^−6 M SNP,80.8 ± 6.9%
same,sodium nitroprusside endothelium-independent relaxation of microvascular,[2]; 1 × 10^−7 M SNP,68.3 ± 5.1%
same,sodium nitroprusside endothelium-independent relaxation of microvascular,[2]; 1 × 10^−8 M SNP,58.9 ± 3.2%
same,sodium nitroprusside endothelium-independent relaxation of microvascular,[2]; 1 × 10^−9 M SNP,43.5 ± 4.1%
same,sodium nitroprusside endothelium-independent relaxation of microvascular,[2]; 1 × 10^−10 M SNP,16.9 ± 6.3%
same,High-density lipoprotein (HDL-C),[3],1.64 ± 1.15
same,Triglyceride (TG),[3],1.48 ± 0.34
same,"plaque area, Frozen section of root of aorta %",[4]; 50 mg/kg,3.66 ± 2.65 %
same,"plaque area, Overall length of aorta",[4]; 50 mg/kg,6.18 ± 3.57
same,"plaque area, Frozen section of root of aorta %",[4]; 100 mg/kg,2.36 ± 0.43 %
same,"plaque area, Overall length of aorta",[4]; 100 mg/kg,3.93 ± 2.40
same,"plaque area, Frozen section of root of aorta %",[4]; 200 mg/kg,2.97 ± 0.92 %
same,"plaque area, Overall length of aorta",[4]; 200 mg/kg,3.67 ± 1.69
same,"lipid accumulation at the plaque site, section staining of the root of aorta",[4]; high-fat diet for 10 weeks,a decrease
same,plaque accumulation in the arch of aorta and overall length of aorta,[4]; high-fat diet for 10 weeks,significantly reduce

# From patent US11324768B2, “Applications of triacetyl-3-hydroxyl phenyl adenosine in treating vascular inflammations or improving vascular endothelium functions” (priority 2016, dated 2022)
